Experimental data as given in article PMC11318591 (ACS Medicinal Chemistry Letters, 2024).
In brackets after ≈: the same amount, converted by molar mass. Like-named read-outs stand apart in the source and are kept apart here. Each block holds one compound with its values, some of them ahead of it.

Columns and labels:
S. aureus DNA gyrase = S. aureus DNA gyrase (Staphylococcus aureus, UniProt P20831); test: DNA cleavage assay
[1] = system: S. enterica Typhimurium 14028 ΔtolC1::kan; test: Minimal inhibitory concentration; type: cell-based, Salmonella enterica serovar Typhimurium; details: for MIC: Salmonella enterica, TYPHIMURIUM, read-out: S. enterica Typhimurium 14028 ΔtolC1::kan MIC
[2] = MIC wildtype 14028 vs efflux-deficient ΔtolC1::kan

levels of SSBs (S. aureus DNA gyrase): lower levels of SSBs
Compound: COc1ccc2ncc(F)c(CCN3CCC(NCc4ccc(C)cc4)CC3)c2n1 [compound 40]

MIC [1]: 0.5 to 1 µg/mL (≈ 1.14 to 2.28 µM)
Compound: COc1ccc2ncc(F)c(CCN3CCC([C@@H](O)[C@H](O)c4ccc(C)cc4)CC3)c2n1 [16a]

MIC [1]: 0.5 to 1 µg/mL (≈ 1.23 to 2.47 µM)
Compound: COc1ccc2ncc(F)c(CCN3CCC(/C=C/c4ccc(C)cc4)CC3)c2n1 [13a]

levels of SSBs (S. aureus DNA gyrase): lower levels of SSBs
Compound: COc1ccc2ncc(F)c(CCN3CCC(C(N)Cc4ccc(C)cc4)CC3)c2n1 (stereo not drawn) [9a]

MIC [1]: 0.5 µg/mL (≈ 1.03 µM)
Compound: COc1ccc2ncc(F)c(CCN3CCC([C@@H](O)[C@H](O)c4ccc5c(c4)OCCO5)CC3)c2n1 [16b]

The remaining lines, values behind:

Compound: COc1ccc2ncc(F)c(CCN3CCC(/C=C\c4ccc(C)cc4)CC3)c2n1 [21a]
Fold Change [1]: ≥8

Compound: O=c1ccc2ncc(=O)n3c2n1C[C@H]3CN1CCC(NCc2cc3c(cn2)OCCC3)CC1 [Gep., gepotidacin, reference compound]
Fold Change [1, 2]: 4–16
MIC [1]: 0.125 to 0.5 µg/mL (≈ 0.279 to 1.11 µM)

Compound: COc1ccc2ncc(F)c(CCN3CCC(/C=C\c4ccc5c(c4)OCCO5)CC3)c2n1 [21b]
Fold Change [1, 2]: ≥16
